Experimental data reported in US20030236223A1, “Metastasis modulating activity of highly sulfated oligosaccharides” (Greenville Hospital System, priority 2002, published 2003).

Assays:
lung metastasis = experiment: Lung metastasis in tumorigenic mice treated via drinking water; assay type: in vivo; conditions: C57B1-6 mice, 10 mg/ml in drinking water for two weeks, FIG. 2
Procedure: C57B1-6 mice (n=2) were treated with 10 mg/ml β-cyclodextrin tetradecasulfate in their drinking water for two weeks. The control animal (n=2) was given cyclodextrin-free drinking water.

[1] = test system: murine B16 melanoma cells; experiment: B16 murine melanoma cell proliferation (Promega Cell Titer 96 AQueous assay); assay type: cell-based; conditions: 48 hours incubation, 0-90 micrograms/ml, FIG. 1
Procedure: 5000 cells/well of murine B16 melanoma cells were plated in a 96-well plate and incubated for 48 hours with varying concentrations of cyclodextrin tetradecasulfate (0-90 micrograms/ml). Non-radioactive assay solution was prepared according to manufacturer's protocol (Promega Cell Titer 96 AQueous Assay Reagents). Cells were read using a Biorad benchmark microplate reader 2 hours after the assay solution was added to the well.

For β-cyclodextrin tetradecasulfate, the “lung metastasis compared to the control animal” value (lung metastasis) was “⅓ fewer lung metastasis” and the cell proliferation [1] was “cell proliferation decreases”.
